Patent US20240246941A1, “SUBSTITUTED 4-(3-AMINOPROP-1-YL)AMINOQUINOLINE ANALOGS AS MODULATORS OF MELANOMA-ASSOCIATED ANTIGEN 11 UBIQUITIN LIGASE” (ST. JUDE CHILDREN'S RESEARCH HOSPITAL, INC., priority 2020, published 2024)
Where a SMILES comes first, the peptide text is derived from it. [ ]: non-standard residue; d: D form. Phe(4-CN) = N#Cc1ccc(C[C@H](N)C(=O)O)cc1

Target: interaction between GST-MAGEA11 MHD and FAM-PCF11_4 peptide (MAGE-A11:PCF11) (Homo sapiens (Human), UniProt P43364)
Assay: TR-FRET dose response competition assay for disruption of MAGE-A11:PCF11 binding
Conditions: Dose response TR-FRET screening of nine scaffold groups against MAGE-A11:PCF11; read-out: consensus IC50
Procedure, shortened: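 Competition TR-FRET at room temperature in 50 mM Tris pH 7.5, 20 mM MgCl2, 0.1 mg/ml BSA, 1 mM DTT: final 5 nM GST-MAGEA11 MHD, 5 nM Tb-anti-GST, 200 nM FAM-PCF11_4, 90 min. Ratio 520/490 nm converted to % inhibition; IC50 from sigmoidal fit.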

interaction between GST-MAGEA11 MHD and FAM-PCF11_4 peptide (MAGE-A11:PCF11), sequence (P43364 218-429): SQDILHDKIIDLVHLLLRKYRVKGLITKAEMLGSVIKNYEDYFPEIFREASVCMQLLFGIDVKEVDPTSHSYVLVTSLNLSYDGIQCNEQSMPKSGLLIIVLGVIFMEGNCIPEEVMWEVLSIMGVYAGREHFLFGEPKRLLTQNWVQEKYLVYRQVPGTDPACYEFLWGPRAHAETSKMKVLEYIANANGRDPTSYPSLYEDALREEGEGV

Structure (SMILES)	IC50 [µM]
CCOc1ccc(N(C(C)=O)C2=C(Cl)C(=O)c3ccccc3C2=O)cc1 [SJ000030567-2]	69.9
Fc1ccc(Cc2ccc3c(NCCCNCc4cccc5c4OCO5)ccnc3c2)cc1 [SJ000311244-1]	42.3
CC(C)(C)c1ccc(Oc2ccc3c(NCCCNCc4cccc5c4OCO5)ccnc3c2)cc1 [SJ000311236-1]	8.67
COc1ccc(CN2C(=O)c3ccccc3NC2c2ccc(OC)cc2)cc1 (centres unmarked) [SJ000510744-1]	69.9
CCOc1ccc(-c2nc3c(c(=O)[nH]c(=O)n3Cc3ccccc3)n2C)cc1 [SJ000389476-1]	69.9
CCc1ccc(C2=C(c3ccc([N+](=O)[O-])cc3)C(=O)OC2)cc1 [SJ000368127-1]	69.9
CCCCn1c(-c2ccc(Cl)cc2)nc2c1c(=O)[nH]c(=O)n2Cc1ccccc1 [SJ000378907-1]	69.9
Cc1ccc(S(=O)(=O)c2nc(-c3ccccc3Cl)oc2N2CC(C)OC(C)C2)cc1 (centres unmarked) [SJ000329066-1]	13
COc1cccc(CNCCCNc2ccnc3cc(Cc4ccccc4)ccc23)c1O [SJ000311307-1]	69.9
COc1ccc(CN2C(=O)c3ccccc3NC2c2ccc(F)cc2)cc1 (centres unmarked) [SJ000510740-1]	69.9
CCCn1c(-c2ccc(C(=O)O)cc2)nc2c1c(=O)[nH]c(=O)n2Cc1ccccc1 [SJ000420129-1]	69.9
CCn1c2ccccc2c2cc(CNCCc3ccc(Cl)cc3)ccc21 [SJ000112458-1]	69.9
COc1cc(Cc2ccc3c(NCCCNCc4cccc5c4OCO5)ccnc3c2)cc(OC)c1 [SJ000311312-1]	31.3
N#CCCn1cnc2cc(-c3ccc(F)cc3)sc2c1=O [SJ000458551-1]	69.9
N#Cc1ccc(Cc2ccc3c(NCCCNCc4cccc5c4OCO5)ccnc3c2)cc1 [SJ000311304-1]	66
CC1CCCC(C)C1NC1=C(Cl)C(=O)c2ccccc2C1=O (centres unmarked) [SJ000299694-1]	69.9
COP(=O)(OC)c1nc(-c2ccc(Cl)cc2)oc1N1CCOCC1 [SJ000090185-1]	17.4
CCCN1C(=O)c2ccccc2NC1c1ccc(OC)c(CSc2ccccn2)c1 (centres unmarked) [SJ000288444-1]	69.9
COc1ccc(C2Nc3ccccc3C(=O)N2Cc2ccccc2)cc1CSc1ccccn1 (centres unmarked) [SJ000111312-2]	69.9
COP(=O)(OC)c1nc(-c2ccc(C)cc2)oc1N1CCOCC1 [SJ000090156-1]	69.9
FC(F)(F)Oc1ccc(CNCCCNc2ccnc3cc(C(F)(F)F)ccc23)cc1 [SJ000521050-1]	69.9
NC1=C(N2CCCCC2)C(=O)c2ccccc2C1=O [SJ000294373-2]	20.1
CCCCn1c(=O)[nH]c(=O)c2c1nc(-c1ccc(OC(F)(F)C(F)C(F)(F)F)cc1)n2O (centres unmarked) [SJ000378966-1]	69.9
CCC(C)(C)NC(=O)Cn1cnc2cc(-c3ccccc3)sc2c1=O [SJ000425613-1]	69.9
CN(C)CCCNCc1ccc2[nH]c3ccccc3c2c1 [SJ000054243-1]	69.9
Nc1ccccc1CNCCCNc1ccnc2cc(Cl)ccc12 [SJ000523055-1]	69.9
COc1ccc(-c2cc3ncn(CC(=O)NCc4ccc(C)cc4)c(=O)c3s2)cc1 [SJ000445282-1]	69.9

Structure (SMILES)	IC50 [µM]
NC1=C(Nc2ccc(Cl)cc2)C(=O)c2ccccc2C1=O [SJ000562630-1]	53.8
COc1ccc(-c2cc3nc[nH]c(=O)c3s2)cc1 [SJ000296726-1]	69.9
O=C1C(Cl)=C(NC(=O)C(F)(F)F)C(=O)c2ccccc21 [SJ000024928-1]	9.87
COc1ccc(F)cc1CNCCCNc1ccnc2cc(Cl)ccc12 [SJ000000500-3]	69.9
CCOC(=O)COc1ccc(-c2nc3c(=O)n(C)c(=O)n(C)c3[nH]2)cc1OC [SJ000140137-1]	69.9
C=CCN(CC=C)C(=O)Cn1cnc2cc(-c3ccc(OC)cc3)sc2c1=O [SJ000431447-1]	69.9
Cc1ccccc1CNC(=O)Cn1cnc2cc(-c3ccccc3)sc2c1=O [SJ000453315-1]	69.9
NC1=C(Nc2ccc(Br)cc2)C(=O)c2ccccc2C1=O [SJ000032713-1]	69.9
COc1cc(-c2nc3c(c(=O)[nH]c(=O)n3Cc3ccccc3)n2C)ccc1O [SJ000430813-1]	69.9
CCN1CCN(Cc2ccc3c(c2)c2ccccc2n3CC)CC1 [SJ000142875-1]	69.9
CCCn1c(=O)[nH]c(=O)c2c1nc(-c1ccc(C(C)(C)C)cc1)n2CCN1CCOCC1 [SJ000377955-1]	69.9
CSc1ccc(C2Nc3ccccc3C(=O)N2CCCN2CCOCC2)cc1 (centres unmarked) [SJ000803762-1]	71.3
COc1ccc(F)cc1CNCCCNc1ccnc2cc(Oc3ccccc3)ccc12 [SJ000311209-1]	29
COc1ccc(Nc2nc(N)c3ccccc3n2)cc1 [SJ000067204-1]	69.9
C=CCOc1ccc(-c2nc3c(c(=O)[nH]c(=O)n3Cc3ccccc3)n2CCC)cc1Br [SJ000379301-1]	69.9
O=S(=O)(c1ccc(Cl)cc1)c1nc(-c2ccccc2Cl)oc1N1CCOCC1 [SJ000141574-1]	69.9
O=C(Cn1cnc2cc(-c3ccccc3)sc2c1=O)NCc1ccccc1OC(F)(F)F [SJ000456118-1]	69.9
FC(F)(F)c1cccc(CNCCCNc2ccnc3cc(C(F)(F)F)ccc23)c1 [SJ000521047-1]	69.9
COc1ccccc1CNC(=O)Cn1cnc2cc(-c3ccc(Cl)cc3)sc2c1=O [SJ000444040-1]	69.9
CC(C)Cc1ccc2c(NCCCNCc3cccc4c3OCO4)ccnc2c1 [SJ000311260-1]	69.9
Fc1ccc(-c2ccc3c(NCCCNCc4cccc5c4OCO5)ccnc3c2)cc1 [SJ000311240-1]	25
O=C1c2ccccc2NC(c2ccc(Cl)c(Cl)c2)N1Cc1ccccc1 (centres unmarked) [SJ000551208-1]	69.9
Cc1cc(C)c(CNCCCNc2ccnc3cc(Cl)ccc23)c(C)c1 [SJ000520911-2]	68.1
Cn1c(-c2cccc(F)c2)nc2c1c(=O)[nH]c(=O)n2Cc1ccccc1 [SJ000387665-1]	69.9
COc1cccc(Oc2ccc3c(NCCCNCc4cccc5c4OCO5)ccnc3c2)c1 [SJ000311216-1]	36.9
CCCN1C(=O)c2ccccc2NC1c1ccccc1F (centres unmarked) [SJ000288611-1]	69.9

Same assay, conditions: PCF11 peptides; read-out: IC50 of PCF11 peptides binding to GST-MAGE-A11 by TR-FRET

Structure (SMILES)	IC50 [µM]
CC[C@H](C)[C@H](NC(=O)[C@H](CCC(N)=O)NC(=O)[C@H](Cc1c[nH]cn1)NC(=O)[C@@H](NC(=O)[C@@H](NC(=O)[C@@H](NC(=O)[C@H](CC(C)C)NC(=O)[C@@H](N)Cc1ccccc1)C(C)C)C(C)C)C(C)C)C(=O)N[C@@H](CCCNC(=N)N)C(=O)N[C@@H](CCC(N)=O)C(=O)N[C@@H](CC(C)C)C(=O)N[C@@H](Cc1ccc(C#N)cc1)C(=O)N[C@@H](CCC(N)=O)C(=O)O [4-cyano-phenylalaninnne] (H-FLVVVHQIRQL[Phe(4-CN)]Q-OH; N-terminus and C-terminus assumed)	0.663

Same assay, conditions: Table 5, dose response TR-FRET screening of 59 quinoline compounds against MAGE-A11:PCF11; read-out: TR-FRET IC50

Structure (SMILES)	IC50 [µM]
Clc1ccc2c(NCCCNCc3cc4ccccc4s3)ccnc2c1 [SJ000521032-1]	> 70
CCCN(CCCNc1ccnc2cc(C(F)(F)F)ccc12)Cc1ccc(CC)cc1 [SJ000521009-2]	> 70
CCCN(CCCNc1ccnc2cc(Cl)ccc12)Cc1c(C)cc(C)cc1C [SJ000522749-1]	> 70
c1coc(CNCCCNc2ccnc3cc(-c4cccc5ccccc45)ccc23)c1 [SJ000311274-1]	> 70
FC(F)(F)c1ccc2c(NCCCNCc3csc4ccccc34)ccnc2c1 [SJ000521061-1]	> 70

Same assay, conditions: Table 6, 4-aminoquinoline compounds; read-out: TR-FRET, IC50

Structure (SMILES)	IC50 [µM]
COc1ccc(F)cc1CNCCCNc1ccnc2cc(-c3ccc(C(F)(F)F)cc3)ccc12 [SJ000311281-01]	5.58

Same assay, conditions: Table 8, representative compounds; read-out: TR-FRET IC50

Structure (SMILES)	IC50 [µM]
COc1ccc(F)cc1CNCCCNc1ccnc2cc(Oc3ccc(F)cc3)ccc12 [SJ000311225]	69.9
COc1ccc(F)cc1CNCCCNc1ccnc2cc(-c3ccc(C(F)(F)F)cc3)ccc12 [SJ000311281-01]	13.4
COc1ccc(OC(F)(F)F)cc1CNCCCNc1ccnc2cc(Cl)ccc12 [SJ000521035]	69.9
Nc1ccccc1CNCCCNc1ccnc2cc(Cl)ccc12 [SJ000523055]	69.9
CN(C)C1=C2C=CC=CC2C(CNCCCNc2ccnc3cc(Cl)ccc23)C=C1 (centres unmarked) [SJ000520354]	69.9
COc1cc(NC(C)CCCN)c2ncccc2c1 (centres unmarked) [SJ000285544]	19
c1cc(CNCCCNc2ccnc3cc(-c4ccc5c(c4)OCO5)ccc23)c2c(c1)OCO2 [SJ000311292]	30.5
COc1cccc(CNCCCNc2ccnc3cc(-c4ccc(C(C)(C)C)cc4)ccc23)c1O [SJ000311287]	4.67
COc1ccc(F)cc1CNCCCNc1ccnc2cc(Cl)ccc12 [SJ000000500]	69.9
COc1ccc(F)cc1CNCCCNc1ccnc2cc(-c3ccccc3)ccc12 [SJ000311285]	28.2
COc1cccc(CNCCCNc2ccnc3cc(CC4CCCCC4)ccc23)c1O [SJ000311251]	29.2
Fc1cccc(CNCCCNc2ccnc3cc(C(F)(F)F)ccc23)c1 [SJ000521066]	69.9
Cc1cc(C)c(CNCCCNc2ccnc3cc(Cl)ccc23)c(C)c1 [SJ000520911]	68.1
Oc1ccccc1CNCCCNc1ccnc2cc(Cl)ccc12 [SJ000311187]	69.9
COc1ccc(F)cc1CNCCCNc1ccnc2cc(Cc3ccc(F)cc3Cl)ccc12 [SJ000311325]	17.6
FC(F)(F)c1cccc(Cc2ccc3c(NCCCNCc4cccc5c4OCO5)ccnc3c2)c1 [SJ000311300]	12.8
CC[C@@]1(O)C(=O)OCc2c1cc1n(c2=O)Cc2cc3ccccc3nc2-1 [SJ000285410]	> 55.2
FC(F)(F)c1ccc2c(NCCCNCc3cccc4c3OCO4)ccnc2c1 [SJ000521048]	69.9
FC(F)(F)Oc1cccc(CNCCCNc2ccnc3cc(Cl)ccc23)c1 [SJ000521022]	69.9

Same assay, conditions: read-out: IC50 by TR-FRET for disrupting MAGE-A11:PCF11 interaction

Structure (SMILES)	IC50 [µM]
COc1ccc(F)cc1CNCCCNc1ccnc2cc(-c3ccc(C(F)(F)F)cc3)ccc12 [SJ000311281-01]	5.58
